# Measurements from the supplement of paper PMC10307832.
# Experiments:
# Assay in all cases: relative viability (nuclei count vs DMSO), 5 days (fraction); higher = more cells survive
# Kobe2602 + Vorinostat = compound: C1=CC(=CC=C1NC(=S)NNC2=C(C=C(C=C2[N+](=O)[O-])C(F)(F)F)[N+](=O)[O-])F [Kobe2602] + O=C(CCCCCCC(=O)Nc1ccccc1)NO [Vorinostat] (partner 1 µM)
# Outline: (§1)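 Lung cancer cell lines in 1536-well plates got either a single drug or a fixed anchor-drug dose together with five library-drug doses (not always all listed) in √10 steps, by pin tool, on the day after seeding. Nuclei were counted after 5 days, and relative viability is the treated-to-vehicle ratio of nuclei counts. Values are medians of duplicate plates.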
# Zosuquidar + OSI-027 = compound: O[C@@H](COc1cccc2ncccc12)CN1CCN([C@@H]2c3ccccc3[C@@H]3[C@H](c4ccccc42)C3(F)F)CC1 [Zosuquidar] + COc1cccc2cc(-c3nc([C@H]4CC[C@H](C(=O)O)CC4)n4ncnc(N)c34)[nH]c12 [OSI-027] (partner 0.5 µM)
# Outline: as §1
# Zosuquidar + Crizotinib = compound: O[C@@H](COc1cccc2ncccc12)CN1CCN([C@@H]2c3ccccc3[C@@H]3[C@H](c4ccccc42)C3(F)F)CC1 [Zosuquidar] + C[C@@H](Oc1cc(-c2cnn(C3CCNCC3)c2)cnc1N)c1c(Cl)ccc(F)c1Cl [Crizotinib] (partner 1 µM)
# Outline: as §1
Cell Line,relative viability (Kobe2602 + Vorinostat; first compound 0.2 µM),relative viability (Kobe2602 + Vorinostat; first compound 0.6325 µM),relative viability (Kobe2602 + Vorinostat; first compound 2 µM),relative viability (Kobe2602 + Vorinostat; first compound 6.325 µM),relative viability (Kobe2602 + Vorinostat; first compound 20 µM),relative viability (Zosuquidar + OSI-027; first compound 0.01 µM),relative viability (Zosuquidar + OSI-027; first compound 0.03162 µM),relative viability (Zosuquidar + OSI-027; first compound 0.1 µM),relative viability (Zosuquidar + OSI-027; first compound 0.3162 µM),relative viability (Zosuquidar + OSI-027; first compound 1 µM),relative viability (Zosuquidar + Crizotinib; first compound 0.01 µM),relative viability (Zosuquidar + Crizotinib; first compound 0.03162 µM),relative viability (Zosuquidar + Crizotinib; first compound 0.1 µM),relative viability (Zosuquidar + Crizotinib; first compound 0.3162 µM),relative viability (Zosuquidar + Crizotinib; first compound 1 µM)
NCI-H1975,0.68,0.74,0.626,0.678,0.701,0.789,0.684,0.679,0.885,0.832,0.923,0.941,1.01,0.924,1.09
BEN,0.634,0.606,0.581,0.56,0.625,0.31,0.297,0.288,0.301,0.313,1.01,0.923,0.827,0.821,0.77
EMC-BAC-2,0.494,1.01,0.425,0.593,0.462,0.365,0.365,0.373,0.435,0.376,0.78,0.724,0.767,0.843,0.765
NCI-H441,0.756,0.711,0.808,0.646,0.697,0.667,0.666,0.519,0.828,0.585,0.681,0.788,0.689,,0.742
NCI-H727,1.18,1.31,1.06,,1.55,0.622,0.538,0.343,0.783,0.705,0.905,0.925,0.732,0.798,0.925
LU99A,0.491,0.493,0.539,0.51,0.53,0.279,0.276,0.253,0.322,0.288,0.499,0.671,0.484,0.607,0.571
NCI-H2405,1.05,1.34,0.998,1.04,1.02,0.67,0.656,0.503,0.713,0.631,0.889,0.82,0.757,0.819,0.825
NCI-H2009,0.715,0.783,0.763,0.752,0.692,0.64,0.684,0.529,0.782,0.645,1.02,1.01,1.05,1.06,1.01
HCC-827,0.891,0.739,0.804,0.892,0.945,0.828,0.723,0.673,0.828,0.788,0.931,0.923,0.937,0.871,0.872
NCI-H838,0.68,0.767,0.654,0.703,0.683,0.411,0.323,0.303,0.38,0.41,0.802,0.789,0.849,0.901,0.779
CAL-12T,0.828,0.831,0.769,0.851,0.706,0.715,0.867,0.478,0.951,0.562,0.51,0.676,0.719,0.747,0.497
RERF-LC-KJ,0.679,0.69,0.671,0.665,0.509,0.543,0.565,0.634,0.691,0.623,0.81,0.799,0.824,0.873,0.806
NCI-H2347,0.523,0.696,0.732,0.661,0.705,0.434,0.398,0.238,0.481,0.475,0.786,0.75,0.575,0.794,0.717
PC-14,0.637,0.788,0.739,0.75,0.413,0.903,0.714,0.826,1.02,0.78,0.837,1.02,0.801,0.938,0.759
HCC-366,0.311,0.357,0.329,0.273,0.296,0.911,1.09,0.845,1.19,0.956,0.468,0.59,0.636,0.48,0.577
LCLC-97TM1,0.692,0.893,,0.964,0.722,0.469,0.507,0.366,0.502,0.641,0.389,0.327,,0.429,0.339
HCC-44,0.999,1.04,1.08,1.05,0.99,0.53,0.391,0.542,0.521,0.581,0.761,0.828,0.84,0.846,0.804
A-427,0.889,0.849,0.906,0.888,0.867,0.409,0.511,0.4,0.507,0.501,0.851,0.911,0.784,0.957,0.858
NCI-H23,0.616,0.645,0.628,0.544,0.729,0.644,0.636,0.525,0.705,0.641,0.467,0.495,0.512,0.534,0.478
NCI-H520,0.702,0.775,0.637,0.691,0.731,0.266,0.294,,0.237,0.236,0.727,0.68,0.737,0.834,0.828
ABC-1,1.17,1.54,0.754,1.02,1.41,0.479,0.426,0.607,0.54,0.509,1.19,1.17,1.41,1.31,1.08
NCI-H2085,0.772,0.817,0.794,0.765,0.733,0.707,0.779,0.468,0.84,0.746,0.822,0.823,0.899,0.792,0.874
